Assay results published in PubChem BioAssay AID1117324 (Cheminformatics & Chemogenomics Research Group (CCRG), …, 2015).
The source made the active and inactive calls. No rule for the calls is given here.

System: VEGF-stimulated ADSC/ECFC co-culture, nuclear area imaging
Assay: nuclear area loss in endothelial-stromal co-culture, dose response, cell-based, VEGF stimulation, IC50 (AID 1117324)

| SMILES | IC50 |
| --- | --- |
| CCCn1cnc2c1c(=O)n(CCCCC(C)=O)c(=O)n2C | > 10 µM (inactive) |
| Cc1nc(Nc2ncc(C(=O)Nc3c(C)cccc3Cl)s2)cc(N2CCN(CCO)CC2)n1 | > 10 µM (inactive) |
| CCc1oc2ccccc2c1C(=O)c1cc(I)c(O)c(I)c1 | > 10 µM (inactive) |
| Cc1c(O)cccc1C(=O)N[C@@H](CSc1ccccc1)[C@H](O)CN1C[C@H]2CCCC[C@H]2C[C@H]1C(=O)NC(C)(C)C | > 10 µM (inactive) |
| Cc1cc(C(C#N)c2ccc(Cl)cc2)c(Cl)cc1NC(=O)c1cc(I)cc(I)c1O (centres undefined) | 7.36 µM (inactive) |
| CSc1ccc(/C=C2/C(C)=C(CC(=O)O)c3cc(F)ccc32)cc1 | > 10 µM (inactive) |
| COc1ccc2cc3[n+](cc2c1OC)CCc1cc2c(cc1-3)OCO2 | > 10 µM (inactive) |
| COC(=O)N[C@H](C(=O)N[C@@H](Cc1ccccc1)[C@@H](O)CN(Cc1ccc(-c2ccccn2)cc1)NC(=O)[C@@H](NC(=O)OC)C(C)(C)C)C(C)(C)C | > 10 µM (inactive) |
| CCCCCN=C(N)N/N=C/c1c[nH]c2ccc(OC)cc12 | 7.17 µM (inactive) |
| CCOC(=O)NC(C)(C)Cc1ccc(Cl)cc1 | > 10 µM (inactive) |
| Cc1cc(=O)c2c(O)c3c(O)cc(=O)c4c3c3c(cc(O)c1c23)C(C)(C)C=4O | 2.07 µM |
| C/C(=C(/OCCOc1ccc(Cl)cc1)c1ccc(Cl)cc1Cl)n1ccnc1 | 9.42 µM (inactive) |
| Oc1c(Br)cc(Br)c2cccnc12 | > 10 µM (inactive) |
| S=C=Nc1ccc(N=C=S)cc1 | > 10 µM (inactive) |
| CCCCCCCCCCCCCCCCCCCCCC(=O)Nc1ccn([C@@H]2O[C@H](CO)[C@@H](O)[C@H]2O)c(=O)n1 | > 10 µM (inactive) |
| O[C@@H](c1cc(C(F)(F)F)nc2c(C(F)(F)F)cccc12)[C@H]1CCCCN1 | 8.61 µM (inactive) |
| O=[N+]([O-])c1ccc(Oc2ccc(N=C=S)cc2)cc1 | > 10 µM (inactive) |
| CN(C)C(=O)Oc1cccc([N+](C)(C)C)c1 | > 10 µM (inactive) |
| Cc1ccc2nc(N)[nH]c(=O)c2c1Sc1ccncc1 | > 10 µM (inactive) |
| COc1ccc2cc1Oc1ccc(cc1)C[C@H]1c3c(cc4c(c3Oc3cc5c(cc3OC)CCN(C)[C@@H]5C2)OCO4)CCN1C | > 10 µM (inactive) |
| O=C(NOCC1CC1)c1ccc(F)c(F)c1Nc1ccc(I)cc1Cl | > 10 µM (inactive) |
| Cc1cc(N)c2ccccc2[n+]1CCCCCCCCCC[n+]1c(C)cc(N)c2ccccc21 | > 10 µM (inactive) |
| CC(C)=CCC/C(C)=C/CC/C(C)=C/C(=O)OCC(=O)[C@@]1(O)CC[C@H]2[C@@H]3CCC4=CC(=O)C=C[C@]4(C)[C@H]3[C@@H](O)C[C@@]21C | > 10 µM (inactive) |
| CN(C)c1ccc2nc3ccc(=[N+](C)C)cc-3sc2c1 | > 10 µM (inactive) |

| SMILES | IC50 |
| --- | --- |
| C#C[C@]1(O)CC[C@H]2[C@@H]3CCc4cc(O)ccc4[C@H]3CC[C@@]21C | > 10 µM (inactive) |
| CCCCCCCCCCCCCCCCCC[N+](C)(C)CCC[Si](OC)(OC)OC | > 10 µM (inactive) |
| Cc1cc(OI)c(C(C)C)cc1-c1cc(C(C)C)c(OI)cc1C | > 10 µM (inactive) |
| Oc1ccc(/C=C/c2cc(O)cc(O)c2)cc1 | > 10 µM (inactive) |
| C[C@H](O)CN(C)C | > 10 µM (inactive) |
| CC(=O)[O][Hg][c]1ccccc1 | 0.883 µM |
| Cn1ccc2cc3c(cc21)CCN3C(=O)Nc1cccnc1 | > 10 µM (inactive) |
| CCCCCCCCCCCCCCCC[N+](C)(C)CC | 7.58 µM (inactive) |
| CSc1ccc2c(c1)C(N1CCN(C)CC1)Cc1ccccc1S2 (centres undefined) | > 10 µM (inactive) |
| CC(=O)N(CC(O)CN(C(C)=O)c1c(I)c(C(=O)NCC(O)CO)c(I)c(C(=O)NCC(O)CO)c1I)c1c(I)c(C(=O)NCC(O)CO)c(I)c(C(=O)NCC(O)CO)c1I (centres undefined) | > 10 µM (inactive) |
| CC[C@]1(O)C[C@@H]2CN(CCc3c([nH]c4ccccc34)[C@@](C(=O)OC)(c3cc4c(cc3OC)N(C)[C@H]3[C@@](O)(C(=O)OC)[C@H](OC(C)=O)[C@]5(CC)C=CCN6CC[C@]43[C@@H]65)C2)C1 | > 10 µM (inactive) |
| CNC(=O)Oc1cccc2ccccc12 | > 10 µM (inactive) |
| CC(C)CCCC(C)NCCC(C)C (centres undefined) | > 10 µM (inactive) |
| Nc1c2ccccc2nc2ccccc12 | > 10 µM (inactive) |
| CN(C)c1ccc(C(=C2C=CC(=[N+](C)C)C=C2)c2ccc(N(C)C)cc2)cc1 | 1.83 µM |
| CCCCC(=O)O[C@H]1CC[C@H]2[C@@H]3CCc4cc(O)ccc4[C@@H]3CC[C@]12C | 8.3 µM (inactive) |
| CO[C@@]12[C@H](COC(N)=O)C3=C(C(=O)C(C)=C(N)C3=O)N1C[C@@H]1N[C@@H]12 | 5.96 µM (inactive) |
| COc1ccccc1OCCNCC(O)COc1cccc2[nH]c3ccccc3c12 (centres undefined) | > 10 µM (inactive) |
| O[C@@H](CNC[C@H](O)[C@H]1CCc2cc(F)ccc2O1)[C@@H]1CCc2cc(F)ccc2O1 | > 10 µM (inactive) |
| Nc1nc(=O)n([C@@H]2O[C@H](CO)[C@@H](O)[C@@H]2F)cc1I | > 10 µM (inactive) |
| O=C(OCCO)c1ccccc1O | > 10 µM (inactive) |
| COc1ccc(Cc2nccc3cc(OC)c(OC)cc23)cc1OC | > 10 µM (inactive) |
| O=C(Nc1ccc(Br)cc1)c1cc(Br)cc(Br)c1O | > 10 µM (inactive) |
| Clc1ccc(CO/N=C(\Cn2ccnc2)c2ccc(Cl)cc2Cl)c(Cl)c1 | 8.85 µM (inactive) |

| SMILES | IC50 |
| --- | --- |
| COC1=C(OC)C(=O)C(CCCCCCCCCCO)=C(C)C1=O | > 10 µM (inactive) |
| CCC1=C[C@@H]2CN(C1)Cc1c([nH]c3ccccc13)[C@@](C(=O)OC)(c1cc3c(cc1OC)N(C)[C@H]1[C@@](O)(C(=O)OC)[C@H](OC(C)=O)[C@]4(CC)C=CCN5CC[C@]31[C@@H]54)C2 | > 10 µM (inactive) |
| CCc1c2c(nc3ccc(OC(=O)N4CCC(N5CCCCC5)CC4)cc13)-c1cc3c(c(=O)n1C2)COC(=O)[C@]3(O)CC | 8.12 µM (inactive) |
| O=C1C(I)=CC(=C(c2cc(I)c(O)c(I)c2)c2ccccc2C(=O)O)C=C1I | > 10 µM (inactive) |
| O=C(CCBr)N1CCN(C(=O)CCBr)CC1 | > 10 µM (inactive) |
| COP(=S)(OC)Oc1ccc(Sc2ccc(OP(=S)(OC)OC)cc2)cc1 | > 10 µM (inactive) |
| CCCCCCCCCCCCNCCNCCNCC(=O)O | > 10 µM (inactive) |
| O=C(CCl)c1ccc(Cl)cc1Cl | 6.17 µM (inactive) |
| O=C(OCc1ccccc1)c1cccnc1 | > 10 µM (inactive) |
| C/C(=N\O)[C@@H](C)NCC(C)(C)CN[C@H](C)/C(C)=N/O | > 10 µM (inactive) |
| CC1=C(/C=C/C(C)=C/C=C/C(C)=C/C(=O)Nc2ccc(O)cc2)C(C)(C)CCC1 | 6.24 µM (inactive) |
| CCOC(=O)C1=C(C)NC(C)=C(C(=O)OCC)C1c1ccccc1/C=C/C(=O)OC(C)(C)C | > 10 µM (inactive) |
| Cc1ccc(O)cc1 | > 10 µM (inactive) |
| CN(C)/N=N/c1nc[nH]c1C(N)=O | > 10 µM (inactive) |
| COc1ccc(CCN2CCC(Nc3nc4ccccc4n3Cc3ccc(F)cc3)CC2)cc1 | > 10 µM (inactive) |
| COC(=O)Nc1nc2ccc(C(=O)C3CC3)cc2[nH]1 | > 10 µM (inactive) |
| O=c1[nH]c(=O)n([C@H]2C[C@H](O)[C@@H](CO)O2)cc1I | > 10 µM (inactive) |
| CCCCC(CC)COC(=O)CC(C(=O)OCC(CC)CCCC)S(=O)(=O)O (centres undefined) | > 10 µM (inactive) |
| NCCNc1ccc(NCCN)c2c1C(=O)c1ccncc1C2=O | > 10 µM (inactive) |
| O=c1c(-c2ccc(O)cc2)coc2cc(O)cc(O)c12 | > 10 µM (inactive) |
| c1ccc2c(c1)Sc1ccccc1N2CC1CN2CCC1CC2 (centres undefined) | > 10 µM (inactive) |
| Cn1cc(S(C)=O)c(=O)c2ccc(F)cc21 (centres undefined) | > 10 µM (inactive) |
| CCOC(=O)[C@H](CCc1ccccc1)N[C@@H](C)C(=O)N1C(=O)N(C)C[C@H]1C(=O)O | > 10 µM (inactive) |
| O=C1NCN(c2ccccc2)C12CCN(CCCC(c1ccc(F)cc1)c1ccc(F)cc1)CC2 | 8.09 µM (inactive) |

| SMILES | IC50 |
| --- | --- |
| OC[C@H]1O[C@@H](n2cnc3c(=S)nc[nH]c32)[C@H](O)[C@@H]1O | > 10 µM (inactive) |
| O=c1[nH]cc(F)c(=O)[nH]1 | > 10 µM (inactive) |
| O=C(Nc1ccc([N+](=O)[O-])cc1Cl)c1cc(Cl)ccc1O | 5.81 µM (inactive) |
| CCC1C(=O)OCC1Cc1cncn1C (centres undefined) | > 10 µM (inactive) |
| O=C1C2CC=CCC2C(=O)N1SC(Cl)(Cl)Cl (centres undefined) | > 10 µM (inactive) |
| CC(=O)Oc1ccccc1C(=O)Nc1ncc([N+](=O)[O-])s1 | > 10 µM (inactive) |
| C[C@H]1O[C@@H](O[C@H]2[C@@H](O)C[C@H](O[C@H]3[C@@H](O)C[C@H](O[C@H]4CC[C@@]5(C)[C@H](CC[C@@H]6[C@@H]5CC[C@]5(C)[C@@H](C7=CC(=O)OC7)CC[C@]65O)C4)O[C@@H]3C)O[C@@H]2C)C[C@H](O)[C@@H]1O | 0.103 µM |
| COC(=O)C(Cl)C(=O)OC | > 10 µM (inactive) |
| OCCN1CCN(CCCN2c3ccccc3Sc3ccc(C(F)(F)F)cc32)CC1 | > 10 µM (inactive) |
| COC(=O)c1ccccc1C(=O)OC | > 10 µM (inactive) |
| O=C(CBr)Nc1ccc(Cl)cc1C(=O)c1ccccc1F | > 10 µM (inactive) |
| COc1c(C)c2c(c(O)c1C/C=C(\C)CCC(=O)OCCN1CCOCC1)C(=O)OC2 | > 10 µM (inactive) |
| CSc1ccc2c(c1)N(CCC1CCCCN1C)c1ccccc1S2 (centres undefined) | 9.24 µM (inactive) |
| Cc1ccc2c(Br)cc(Br)c(O)c2n1 | > 10 µM (inactive) |
| CC(=O)Oc1ccc(C2(c3ccc(OC(C)=O)cc3)C(=O)Nc3ccccc32)cc1 | > 10 µM (inactive) |
| COC(=O)Nc1nc2ccc(C(=O)c3ccccc3)cc2[nH]1 | > 10 µM (inactive) |
| C#C[C@]1(O)CC[C@@H]2[C@@H]3CCC4=CCCC[C@@H]4[C@H]3C(=C)C[C@@]21CC | 9.57 µM (inactive) |
| CN(C)CCCN1c2ccccc2Sc2ccc(Cl)cc21 | > 10 µM (inactive) |
| Clc1ccc(COC(Cn2ccnc2)c2ccc(Cl)cc2Cl)cc1 (centres undefined) | 9.93 µM (inactive) |
| NC(=O)n1c(O)c(C(=O)c2cccs2)c2cc(Cl)ccc21 | > 10 µM (inactive) |
| O=C(NC(=O)c1c(F)cccc1F)Nc1ccc(Cl)c(Oc2ncc(C(F)(F)F)cc2Cl)c1 | > 10 µM (inactive) |
| COc1ccc2c(c1)c1c3n2CCN(C)C3=NCC1 | > 10 µM (inactive) |
